The text below walks through data of patent publication US9067943B2, “[1,2,3]triazolo[4,5-D]pyrimidine derivatives” (priority 2011, dated 2015).

For one test, the target named is T1, human CB2 receptors (Homo sapiens, UniProt P34972).
T1 construct: expressed in transfected cells; host or cells: CHO cells
Nature of the test: cAMP assay. Type of test: cell-based. On the procedure: (§1) CHO cells expressing human CB1 or CB2 receptors are seeded 17-24 hours prior to the experiment 50.000 cells per well in a black 96 well plate with flat clear bottom (Corning Costar #3904) in DMEM (Invitrogen No. 31331), 1×HT supplement, with 10% fetal calf serum and incubated at 5% CO2 and 37° C. in a humidified incubator. The growth medium was exchanged with Krebs Ringer Bicarbonate buffer with 1 mM IBMX and incubated at 30° C. for 30 min. Compounds were added to a final assay volume of 100 μl and incubated for 30 min at 30° C. Using the cAMP-Nano-TRF detection kit the assay (Roche Diagnostics) was stopped by the addition of 50 μl lysis reagent (Tris, NaCl, 1.5% Triton X100, 2.5% NP40, 10% NaN3) and 50 μl detection solutions (20 μM mAb Alexa700-cAMP 1:1, and 48 μM Ruthenium-2-AHA-cAMP) and shaken for 2 h at room temperature. The time-resolved energy transfer is measured by a TRF reader (Evotec Technologies GmbH), equipped with a ND:YAG laser as excitation source. The plate is measured twice with the excitation at 355 nm and at the emission with a delay of 100 ns and a gate of 100 ns, total exposure time 10 s at 730 (bandwidth 30 nm) or 645 nm (bandwidth 75 nm), respectively. The FRET signal is calculated as follows: FRET=T730-Alexa730-P(T645-B645) with P=Ru730-B730/Ru645-B645, where T730 is the test well measured at 730 nM, T645 is the test well measured at 645 nm, B730 and B645 are the buffer controls at 730 nm and 645 nm, respectively. cAMP content is determined from the function of a standard curve spanning from 10 μM to 0.1 nM cAMP.
(§2) EC50 values were determined using Activity Base analysis (ID Business Solution, Limited). The EC50 values for a wide range of cannabinoid agonists generated from this assay were in agreement with the values published in the scientific literature.
Background: cAMP levels reflect the balance of adenylyl cyclase and phosphodiesterase activity.

Another test has as its target T2, human CB1 receptors (Homo sapiens, UniProt P21554).
T2 construct: expressed in transfected cells; host or cells: CHO cells
Description: cAMP assay. Type of test: cell-based. On the procedure: as §1, §2

T1 sequence (P34972 whole entry): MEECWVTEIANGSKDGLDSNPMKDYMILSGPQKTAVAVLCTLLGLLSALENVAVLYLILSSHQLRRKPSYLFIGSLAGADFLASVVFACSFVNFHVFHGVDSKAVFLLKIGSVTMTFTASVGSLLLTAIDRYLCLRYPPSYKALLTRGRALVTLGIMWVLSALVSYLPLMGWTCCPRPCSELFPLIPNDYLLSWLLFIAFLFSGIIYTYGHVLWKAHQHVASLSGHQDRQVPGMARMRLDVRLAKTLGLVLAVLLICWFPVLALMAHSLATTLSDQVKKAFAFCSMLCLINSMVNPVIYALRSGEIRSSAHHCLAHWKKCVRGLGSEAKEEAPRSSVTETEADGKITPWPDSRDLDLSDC
T2 sequence (P21554 whole entry): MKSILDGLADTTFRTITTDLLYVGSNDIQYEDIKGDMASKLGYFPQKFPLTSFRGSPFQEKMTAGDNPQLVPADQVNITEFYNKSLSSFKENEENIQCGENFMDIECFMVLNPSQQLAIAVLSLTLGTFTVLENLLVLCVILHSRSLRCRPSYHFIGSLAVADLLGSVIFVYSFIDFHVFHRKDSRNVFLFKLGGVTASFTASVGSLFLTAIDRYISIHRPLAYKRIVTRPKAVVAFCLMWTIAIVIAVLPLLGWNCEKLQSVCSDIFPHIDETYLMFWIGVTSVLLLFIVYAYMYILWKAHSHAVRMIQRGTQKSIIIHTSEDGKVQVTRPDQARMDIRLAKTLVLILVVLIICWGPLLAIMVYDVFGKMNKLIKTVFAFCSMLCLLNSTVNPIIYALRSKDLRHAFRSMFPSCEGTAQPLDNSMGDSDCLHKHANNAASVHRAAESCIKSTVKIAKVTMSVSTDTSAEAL

On to `CC(C)(C)c1nc(N2CCC(F)(F)C2)c2nn(Cc3ccccc3OC(F)(F)F)nc2n1` [Example 24, 5-tert-Butyl-7-(3,3-difluoro-pyrrolidin-1-yl)-2-(2-trifluoromethoxy-benzyl)-2H-[1,2,3]triazolo[4,5-d]pyrimidine], for which the EC50 (commonly the concentration needed to bring the measured effect to its halfway point) on human CB2 receptors is 0.4 nM; on human CB1 receptors, more than 10000 nM.
Taken in the same sequence, the figures for `CC(C)(C)c1nc(N2CCC(F)(F)C2)c2nn(Cc3ccccc3C#N)nc2n1` [Example 25, 2-[5-tert-Butyl-7-(3,3-difluoro-pyrrolidin-1-yl)-[1,2,3]triazolo[4,5-d]pyrimidin-2-ylmethyl]-benzonitrile] were 0.1 nM and 205 nM.
With `CC(C)(C)c1nc(N2CCC(F)(F)C2)c2nn(CCc3ccccc3)nc2n1` [Example 26, 5-tert-Butyl-7-(3,3-difluoro-pyrrolidin-1-yl)-2-phenethyl-2H-[1,2,3]triazolo[4,5-d]pyrimidine], the EC50 at human CB2 receptors was found to be 1.3 nM; on human CB1 receptors, 386 nM.
Taken in the same sequence, the figures for `CC(C)(C)c1nc(N2CCC(F)(F)C2)c2nn(CC(=O)c3ccccc3)nc2n1` [Example 27, 2-[5-tert-Butyl-7-(3,3-difluoro-pyrrolidin-1-yl)-[1,2,3]triazolo[4,5-d]pyrimidin-2-yl]-1-phenyl-ethanone] were 0.9 nM and more than 10000 nM.
Regarding `C[C@H](c1ccccc1Cl)n1nc2nc(C(C)(C)C)nc(N3CCC(F)(F)C3)c2n1` [Example 28, 5-tert-Butyl-2-[(R)-1-(2-chloro-phenyl)-ethyl]-7-(3,3-difluoro-pyrrolidin-1-yl)-2H-[1,2,3]triazolo[4,5-d]pyrimidine], the values for the EC50 on human CB2 receptors and at human CB1 receptors were 0.2 nM and 134 nM, respectively.
Taken in the same sequence, the figures for `C[C@@H](c1ccccc1Cl)n1nc2nc(C(C)(C)C)nc(N3CCC(F)(F)C3)c2n1` [Example 29, 5-tert-Butyl-2-[(S)-1-(2-chloro-phenyl)-ethyl]-7-(3,3-difluoro-pyrrolidin-1-yl)-2H-[1,2,3]triazolo[4,5-d]pyrimidine] were 0.8 nM and 98 nM.
With `CC(C)(C)c1nc(N2CCC(F)(F)C2)c2nn(Cc3c(Cl)ccc(F)c3Cl)nc2n1` [Example 33, 5-tert-Butyl-2-(2,6-dichloro-3-fluoro-benzyl)-7-(3,3-difluoro-pyrrolidin-1-yl)-2H-[1,2,3]triazolo[4,5-d]pyrimidine], the EC50 at human CB2 receptors was 1.2 nM; on human CB1 receptors, more than 10000 nM.
Taken in the same sequence, the figures for `CC(C)(C)c1nc(N2CCC(F)(F)C2)c2nn(Cc3cccnc3Cl)nc2n1` [Example 34, 5-tert-Butyl-2-(2-chloro-pyridin-3-ylmethyl)-7-(3,3-difluoro-pyrrolidin-1-yl)-2H-[1,2,3]triazolo[4,5-d]pyrimidine] were 0.5 nM and more than 10000 nM.
With `CC(C)(C)c1nc(N2CCC(F)(F)C2)c2nn(Cc3cnccc3Cl)nc2n1` [Example 35, 5-tert-Butyl-2-(4-chloro-pyridin-3-ylmethyl)-7-(3,3-difluoro-pyrrolidin-1-yl)-2H-[1,2,3]triazolo[4,5-d]pyrimidine], the EC50 at human CB2 receptors came to 0.5 nM; on human CB1 receptors it was 642 nM.
The like results for `CC(C)(C)c1nc(N2CCC(F)(F)C2)c2nn(Cc3ncccc3Cl)nc2n1` [Example 36, 5-tert-Butyl-2-(3-chloro-pyridin-2-ylmethyl)-7-(3,3-difluoro-pyrrolidin-1-yl)-2H-[1,2,3]triazolo[4,5-d]pyrimidine] were, in that order, 0.2 nM and 20.3 nM.
In the case of `CC(C)(C)c1nc(N2CCC(F)(F)C2)c2nn(Cc3cc(Cl)cnc3Cl)nc2n1` [Example 37, 5-tert-Butyl-2-(2,5-dichloro-pyridin-3-ylmethyl)-7-(3,3-difluoro-pyrrolidin-1-yl)-2H-[1,2,3]triazolo[4,5-d]pyrimidine], the EC50 is 0.9 nM at human CB2 receptors and more than 10000 nM on human CB1 receptors.
`CC(C)(C)c1nc(N2CCC(F)(F)C2)c2nn(Cc3nc(Cl)ccc3Cl)nc2n1` [Example 38, 5-tert-Butyl-2-(3,6-dichloro-pyridin-2-ylmethyl)-7-(3,3-difluoro-pyrrolidin-1-yl)-2H-[1,2,3]triazolo[4,5-d]pyrimidine]: the EC50 was 1.1 nM at human CB2 receptors and 98.6 nM at human CB1 receptors.
